Assay results as given in patent publication US6740680B1, “Pharmaceutical compositions to tetrac and methods of use thereof” (Becton Pharma, Inc., priority 1999, dated 2004).

Tests used:
hypothyroid rats = test: Heart weight and heart/body weight in hypothyroid rats infused with Tetrac or T4; format: in vivo, rat; settings: for Heart / Heart/BW (%): hypothyroid rats, mean ± SEM; for Heart: continuous minipump infusion
Description: (§1) Seventy-nine male SIVZ rats were purchased from the breeder (Institut für Labortierkunde des Universität Zürich, Zürich, Switzerland). They were rendered hypothyroid by a single injection of [^131I]Na (100 μCi/rat) and before and throughout the experiment 0.02% 2-mercapto-1-methylimidazol (MMI) was added to drinking water. In order to have an euthyroid control group of similar weight and identical age, 10 rats received only MMI in the drinking water and 2 weeks before implanting the minipumps, MMI was withdrawn. Osmotic minipumps (secretion rate 0.25 μl/hour, duration 14 days) were implanted intraperitoneally (i.p.) 2 months after the injection of [^131I]Na. The minipumps were filled with T4 or Tetrac dissolved in 0.05 N NaOH, 2% BSA and 100,000 cpm [^125I]T4 or [^125I]Tetrac as control of their secretion rates. The infusion lasted 13 days. 0, 1.5, 4.5, 13.5 and 40.5 nmol Tetrac/day/100 g or 0.5, 1.5, 4.5 and 13.5 nmol T4/day/100 g bodyweight (BW) (n=4/dose) were infused. An euthyroid control group was included. The animals were weighed every 2 days. Rats were sacrificed by decapitation and blood was collected and stored at […] until use. Tissues (liver, heart, brown adipose tissue, cerebral cortex and pituitary) were removed rapidly, frozen in liquid nitrogen and stored at […] until use.

TSH [1] = test: Serum TSH in hypothyroid rats infused with Tetrac or T4; format: in vivo, rat; settings: for Serum TSH: hypothyroid rats, mean ± SEM
Description: Seventy-nine male SIVZ rats were purchased from the breeder (Institut für Labortierkunde des Universität Zürich, Zürich, Switzerland). […] The infusion lasted 13 days. […] An euthyroid control group was included. The animals were weighed every 2 days. Rats were sacrificed by decapitation and blood was collected and stored at […] until use. Tissues (liver, heart, brown adipose tissue, cerebral cortex and pituitary) were removed rapidly, frozen in liquid nitrogen and stored at […] until use.
Hornone assays. […] Endocrinol. […] Serum TSH measurements were performed with reagents kindly provided by the National Pituitary Program, NIAMDD, NIH (Bethesda, USA).

Monodeiodinase type 2 = Monodeiodinase type 2 activity in brain cortex and brown adipose tissue of infused rats; format: in vivo, rat; settings: infused rats, remaining activity, adjusted group mean at the mean Ln (TSH) concentration
Description: as §1
Monodeiodinase type 1 and 2 activities. Monodeiodinase type 1 and type 2 activities were determined in tissue homogenates by measuring the release of radioiodide from [^125I]rT3 according to the method of Leonard and Rosenberg (Leonard, J. L. et al. Endocrinology (1980) 106: 444-451).
(§2) Monodeiodinase type 1 activity was measured in liver homogenates using 1 μM rT3 and 1 mM DTT with 10 min of incubation, whereas for heart, 0.01 μM rT3 and 10 mM DTT with 1 hour of incubation. Monodeiodinase type 2 activity was measured in brown adipose tissue (BAT) and cerebral cortex using 1 nM rT3, 10 mM DTT and 1 mM propylthiouracil (PTU) with 1 hour of incubation. Protein concentrations were measured by the method of Bradford (Bio-Rad Laboratories GmbH, Munich, Germany) with bovine gammaglobulin as the protein standard. In order to study the effect of circulating Tetrac on the enzyme activities, 2 rats were injected intraperitoneally with 10 μCi ^125I Tetrac and killed 6 hours later. The tissue homogenates were extracted with 3 volumes of ethanol-NH3 (97:3). After 10 minutes centrifugation at 15,000 g, the supernatant was vacuum dried and applied to TLC (Merck 254, Toluol, acetic acid, water: 2:2:1). In order to calculate the tissue concentrations, the highest serum Tetrac levels were used (406 pmol/ml). The calculated tissue concentrations were: liver: 1.9, heart: 2.29 and brain cortex: 0.47 fluol Tetrac/μg protein.

[2] = test system: monodeiodinase type 1 mRNA; test: Northern blot, hepatic monodeiodinase type 1 mRNA; format: in vivo, rat; settings: Liver
Description: as §1
(§3) Total RNA extraction and Northern Blot hybridization Total RNA was extracted with the method of Chomczynski and Sacchi (Chomczynski, P. and Sacchi, N. Anal. Biochem. (1987) 162: 156-159). […]
(§4) The amount of labeled mRNA was quantified by scanning laser densitometry (Phosphorimager, Molecular Dynamics; Sunnyvale, USA). Variations in RNA loading and membrane transfer were corrected by densitometric quantification of a negative photograph of 28S and 18S ribosomal RNA bands from ethidium bromide stained RNA gels. […]

α-MHC mRNA = test: Northern blot, α-MHC mRNA in heart; format: in vivo, rat; settings: infused rats, adjusted group mean at the mean Ln (TSH) concentration
Description: as §1, §3, §4

β-MHC mRNA = test: Northern blot, β-MHC mRNA in heart; format: in vivo, rat
Description: as §1, §3, §4

[3] = Tissue concentrations of Tetrac after 125I Tetrac injection; format: in vivo, rat; settings: for Calculated tissue concentration of Tetrac: calculated with highest serum Tetrac level (406 pmol/ml)
Description: as §2

TSH [4] = test: Suppression of TSH by Tetrac in humans
Description: A patient receiving 200 μg/day dose of T4 was withdrawn from T4 treatment and treated with Tetrac for 21 days with a dose of 2100 μg/day.

[5] = infusion 13.5 nmol/day/100 g BW
[6] = infusion 40.5 nmol/day/100 g BW
[7] = infused rats, adjusted group mean at the mean Ln (TSH) concentration

## O=C(O)Cc1cc(I)c(Oc2cc(I)c(O)c(I)c2)c(I)c1 [Tetrac, 3,3′,5,5′-tetraiodothyroacetic acid]
Hypothyroid rats; compared with T4, p<0.01
  Increase of heart weight relative to body weight with increasing infusion rates (in words): less efficient
Hypothyroid rats; 1.5 nmol/day/100 g BW
  Heart: 0.76 ± 0.02 g
Hypothyroid rats; 4.5 nmol/day/100 g BW
  Heart: 0.83 ± 0.04 g
Hypothyroid rats; 13.5 nmol/day/100 g BW
  Heart: 0.94 ± 0.03 g
Hypothyroid rats; 40.5 nmol/day/100 g BW
  Heart: 0.98 ± 0.06 g
Hypothyroid rats; infusion 1.5 nmol/day/100 g BW
  Heart/BW (%): 0.31 ± 0.01%
Hypothyroid rats; infusion 4.5 nmol/day/100 g BW
  Heart/BW (%): 0.33 ± 0.02%
Hypothyroid rats; [5]
  Heart/BW (%): 0.36 ± 0.01%
Hypothyroid rats; [6]
  Heart/BW (%): 0.39 ± 0.02%
TSH [1]; infusion 1.5 nmol/day/100 g BW
  Serum TSH: 90.3 ± 8.6 ng/mL
TSH [1]; infusion 4.5 nmol/day/100 g BW
  Serum TSH: 4.6 ± 0.5 ng/mL
TSH [1]; [5]
  Serum TSH: 1.2 ± 0.3 ng/mL
TSH [1]; [6]
  Serum TSH: <0.8 ng/mL
TSH [1]; mean over all dose levels of the treated rats, p=<0.04
  Serum TSH concentration, mean of treatment group: 24 ng/mL
Monodeiodinase type 2; BAT
  Residual monodeiodinase type 2 activity, adjusted mean: 28
Monodeiodinase type 2; Brain Cortex
  Residual monodeiodinase type 2 activity, adjusted mean: 27.7
[2]; at equal serum TSH concentration
  Residual Monodeiodinase type 1 mRNA, Tetrac/T4 (activity of Tetrac in % of T4): 49%
[2]; [7]
  Residual Monodeiodinase type 1 mRNA, adjusted mean: 2.48 arbitrary units
α-MHC mRNA
  α-MHC mRNA, adjusted mean: 5.3 arbitrary units
β-MHC mRNA
  β-MHC mRNA, Tetrac/T4 (activity of Tetrac in % of T4): 66%
β-MHC mRNA; [7]
  β-MHC mRNA, adjusted mean: 328 arbitrary units
[3]; brain cortex homogenates
  Concentration of Tetrac in brain cortex homogenates: less than 1 fmol/μg protein
[3]; brain cortex
  Calculated tissue concentration of Tetrac: 0.47 fluol Tetrac/μg protein
[3]; heart
  Calculated tissue concentration of Tetrac: 2.29 fluol Tetrac/μg protein
[3]; liver
  Calculated tissue concentration of Tetrac: 1.9 fluol Tetrac/μg protein
TSH [4]; one patient withdrawn from T4, Tetrac 2100 μg/day, after 21 days
  TSH after treatment: 6.3 mU/L
TSH [4]; same patient, start of Tetrac treatment
  TSH before treatment (after T4 withdrawal): 151.0 mU/L
